Consider 4 compounds from patent publication US9737516B2, “Bicyclic heterocycles as bet protein inhibitors” (Incyte Corporation, priority 2013, dated 2017).

The term IC50 denotes the concentration that inhibits the measured activity by half.

SMILES strings stand for the structures.

Assay [1] concerns C-myc in KMS.12.BM cells. Briefly: KMS.12.BM C-myc ELISA assay. Type of assay: cell-based. The conditions noted are these: Homo sapiens, 2 hours. Here is the method:
KMS.12.BM cell line (human myeloma) was purchased from JCRB (Osaka, Japan) and maintained in RPMI with 10% FBS culture medium. To measure the C-myc inhibitory activity of the compounds, the KMS.12.BM cells are plated in the RPMI culture medium at 75000 cells/well/per 200 μL into a 96-well flat bottom polystyrene tissue culture plate (Corning through VWR, N.J.), in the presence or absence of a concentration range of test compounds. After 2 hours, cell are pelleted and lysed with Cell Extraction Buffer (BioSource, Carlsbad, Calif.) in the presence of protease inhibitors (Life Technologies, Grand Island, N.Y. and Sigma, St Louis, Mo.). Clarified lyses are tested in a C-myc commercial ELISA (Life Technologies, Grand Island, N.Y.). Compound inhibition is determined relative to cells cultured with no drug and the IC50 is reported as the compound concentration required for 50% C-myc inhibition. IC50 data for the Examples is presented in Table 3 as determined by Assay C1.
For orientation: ELISA stands for enzyme-linked immunosorbent assay.

Assay [2] has as its target BRD4-BD2 (Homo sapiens (Human), UniProt O60885). Briefly: BRD4 AlphaScreen assay (BRD4-BD2). Type of assay: binding. The conditions noted are these: H4Ac4 peptide, 20 nM BRD4-BD2, read-out: BRD4 BD-2 enzyme IC50. Here is the method:
(§1) BRD4-BD1 and BRD4-BD2 assays were conducted in white 384-well polystyrene plate in a final volume of 20 μL for BD1 and 40 μL for BD2. Inhibitors were first serially diluted in DMSO and added to the plate wells before the addition of other reaction components. The final concentration of DMSO in the assay was 1.25% (BD1) and 0.83% (BD2). The assays were carried out at room temperature for 75 min. in the assay buffer (50 mM HEPES, pH 7.4, 100 mM NaCl, 0.05% CHAPS, 0.01% BSA), containing 50 nM Biotin-labeled tetra-acetylated histone H4 peptide (H4Ac4), 3.8 nM (BRD4-BD1, BPS Bioscience #31040) or 20 nM (BRD4-BD2, BPS Bioscience #31041). The reaction followed by the addition of 20 μL of assay buffer supplemented with Streptavidin donor beads (PerkinElmer 6760002) and GSH Acceptor beads (PerkinElmer-AL109C) at 4 µg/mL under reduced light. After plate sealing, the plate was incubated in the dark at room temperature for 75 min. before reading on a PHERAstar FS plate reader (BMG Labtech). IC50 determination was performed by fitting the curve of percent control activity versus the log of the inhibitor concentration using the GraphPad Prism 5.0 software. IC50 data for the Examples is presented in Table 1 as determined by Assay A1.
(In general: Alpha assays give light when donor and acceptor beads are brought close together.)

In assay [3] the test system is KMS.12.BM cells. Nature of the assay: KMS.12.BM cell viability assay (ATP quantitation, Cell Titer-GLO). Conditions: Homo sapiens, 72 h, 3 days, concentration required for 50% cell death, read-out: KMS cellular IC50. It is filed as cell-based. Here is the method: KMS.12.BM cell line (human myeloma) was purchased from JCRB (Osaka, Japan) and maintained in RPMI with 10% FBS culture medium. To measure the cytotoxic activity of the compounds through ATP quantitation, the KMS.12.BM cells are plated in the RPMI culture medium at 5000 cells/well/per 100 μL into a 96-well polystyrene clear black tissue culture plate (Greiner-bio-one through VWR, NJ), in the presence or absence of a concentration range of test compounds. After 3 days, […] Cell Titer-GLO Luminescent (Promega, Madison, Wis.) cell culture agent is added to each well for 10 minutes at room temperature to stabilize the luminescent signal. This determines the number of viable cells in culture based on quantitation of the ATP present, which signals the presence of metabolically active cells. Luminescence is measured with the Top Count 384 (Packard Bioscience through Perkin Elmer, Boston, Mass.). Compound inhibition is determined relative to cells cultured with no drug and the IC50 is reported as the compound concentration required for 50% cell death. IC50 data for the Examples is presented in Table 2 as determined by Assay B1.

Assay [4] has as its target BRD4-BD1 (Homo sapiens (Human), UniProt O60885). Nature of the assay: BRD4 AlphaScreen assay (BRD4-BD1). It is filed as binding. Conditions: H4Ac4 peptide, 3.8 nM BRD4-BD1, read-out: BRD4 BD-1 enzyme IC50. Here is the method:
as §1

On to `Cn1cc(-c2cc3[nH]cnc3cc2OCC2CCC2)c2cc[nH]c2c1=O` [Example 11, 4-[5-(Cyclobutylmethoxy)-1H-benzimidazol-6-yl]-6-methyl-1,6-dihydro-7H-pyrrolo[2,3-c]pyridin-7-one], for which the IC50 in assay [1] is at most 1000 nM; in assay [2], at most 100 nM; in assay [3], at most 1000 nM; in assay [4], at most 100 nM.

In the case of `Cn1cc(-c2cc3[nH]c(=O)n(C)c3cc2Oc2ccc(F)cc2F)c2cc[nH]c2c1=O` [Example 2, 6-(2,4-Difluorophenoxy)-1-methyl-5-(6-methyl-7-oxo-6,7-dihydro-1H-pyrrolo[2,3-c]pyridin-4-yl)-1,3-dihydro-2H-benzimidazol-2-one], the IC50 in assay [1] is at most 1000 nM; in assay [2] it was at most 100 nM; in assay [3], at most 1000 nM; in assay [4], at most 100 nM.

On to `CC(C)n1cnc2cc(OCC3CCC3)c(-c3cn(C)c(=O)c4[nH]ccc34)cc21` [Example 18, 4-[5-(Cyclobutylmethoxy)-1-isopropyl-1H-benzimidazol-6-yl]-6-methyl-1,6-dihydro-7H-pyrrolo[2,3-c]pyridin-7-one], for which the IC50 in assay [1] is at most 1000 nM; in assay [2], at most 100 nM; in assay [3] it was at most 1000 nM; in assay [4], at most 100 nM.

With `Cn1cc(-c2cc3c(cc2Oc2ccc(F)cc2F)n(C)c(=O)n3C)c2cn[nH]c2c1=O` [Example 10, 4-[6-(2,4-Difluorophenoxy)-1,3-dimethyl-2-oxo-2,3-dihydro-1H-benzimidazol-5-yl]-6-methyl-1,6-dihydro-7H-pyrazolo[3,4-c]pyridin-7-one], the IC50 is at most 1000 nM in assay [1], at most 100 nM in assay [2], at most 1000 nM in assay [3] and at most 100 nM in assay [4].
